Data reported in ChEMBL document CHEMBL1133887, “Anti-influenza virus activities of 2-alkoxyimino-n-(2-isoxazolin-3-ylmethyl)acetamides” (Bioorg Med Chem Lett, 2001).
Values after ≈ are worked out from the molar mass of the structure shown.

Columns and labels:
[1] = Evaluated for cytotoxic activity in MDBK cells; assay type: functional; conditions: Bos taurus
[2] = Antiviral activity against A/WSN/33 strain of influenza virus (H1N1 subtype) in MDBK cells using cell protection assay; expressed as 100 ppm; assay type: functional, cell-based; conditions: Bos taurus
cells = assay type: functional, cell-based; conditions: Bos taurus, MDBK
[3] = Antiviral activity against A/WSN/33 strain of influenza virus (H1N1 subtype) in MDBK cells using cell protection assay; expressed as 10-100 ppm; assay type: functional, cell-based; conditions: Bos taurus
[4] = Antiviral activity against A/WSN/33 strain of influenza virus (H1N1 subtype) in MDBK cells using cell protection assay; expressed as 1-10 ppm; assay type: functional, cell-based; conditions: Bos taurus
[5] = The compound was evaluated for cytotoxic activity in MDBK cells; expressed as >100 ppm; assay type: functional; conditions: Bos taurus
[6] = Antiviral activity against A/WSN/33 strain of influenza virus (H1N1 subtype) in MDBK cells using cell protection assay; assay type: functional, cell-based; conditions: Bos taurus
[7] = Antiviral activity against A/WSN/33 strain of influenza virus (H1N1 subtype) in MDBK cells using cell protection assay; expressed as >10-100 ppm; assay type: functional, cell-based; conditions: Bos taurus

| SMILES | CC50 [1] | EC50 [3] | also measured |
| --- | --- | --- | --- |
| C=CCO/N=C(/C(=O)NCC1=NOC(C(C)(C)C)C1)c1ccccc1 (stereo not given) | > 100 µg/mL |  | EC50 [2]: 100 µg/mL (≈ 291 µM) |
| CCNC(=O)NC(=O)/C(C#N)=N/OC [CYMOXANIL] | > 100 µg/mL |  | EC50 (cells): > 100 µg/mL |
| CO/N=C(/C#N)C(=O)NCC1=NOC(C(C)(C)C)C1 (stereo not given) | > 100 µg/mL | 100 µg/mL (≈ 376 µM) |  |
| CCO/N=C(\C#N)C(=O)NCC1=NOC(C(C)(C)C)C1 (stereo not given) | > 100 µg/mL |  | EC50 [4]: 10 µg/mL (≈ 35.7 µM) |
| CO/N=C(\C#N)C(=O)NCC1=NOC(C)(C)C1 | > 100 µg/mL | 100 µg/mL (≈ 420 µM) |  |
| C=CCO/N=C(\C#N)C(=O)NCC1=NOC(c2ccccc2)C1 (stereo not given) | 100 µg/mL (≈ 320 µM) | 100 µg/mL (≈ 320 µM) |  |
| CO/N=C(\C#N)C(=O)NC(=O)OC(C)(C)C | > 100 µg/mL |  | EC50 (cells): > 100 µg/mL |
| CO/N=C(\C#N)C(=O)NCc1cccs1 | > 100 µg/mL |  | EC50 (cells): > 100 µg/mL |
| CC(C)O/N=C(\C#N)C(=O)NCC1=NOC(C(C)(C)C)C1 (stereo not given) | > 100 µg/mL |  | EC50 [4]: 10 µg/mL (≈ 34 µM) |
| CO/N=C(\C#N)C(=O)NCC1=NOC(C)C1 (stereo not given) |  | 100 µg/mL (≈ 446 µM) | CC50 [5]: > 100 µg/mL |
| CC(C)(C)C1CC(CNC(=O)/C(C#N)=N/OCc2cccnc2)=NO1 (stereo not given) | > 100 µg/mL |  | EC50 (cells): > 100 µg/mL |
| CO/N=C(\C#N)C(=O)NCC1CC(C(C)(C)C)=NO1 (stereo not given) | > 100 µg/mL | 100 µg/mL (≈ 376 µM) |  |
| C=CCO/N=C(\CC)C(=O)NCC1=NOC(C(C)(C)C)C1 (stereo not given) | > 100 µg/mL |  | EC50 [2]: 100 µg/mL (≈ 339 µM) |
| CC(C)(C)C1CC(CNC(=O)/C(C#N)=N/OCC#N)=NO1 (stereo not given) | > 100 µg/mL | 100 µg/mL (≈ 343 µM) |  |
| C=CCO/N=C(\C#N)C(=O)NCC1=NOC(C(C)(C)C)C1 (stereo not given) | > 100 µg/mL |  | EC50 [6]: 3 µg/mL (≈ 10.3 µM) |
| C=CCO/N=C/C(=O)NCC1=NOC(C(C)(C)C)C1 (stereo not given) | > 100 µg/mL |  | EC50 [2]: 100 µg/mL (≈ 374 µM) |
| C=CCO/N=C(\C#N)C(=O)NCc1cc(C(C)(C)C)on1 | 100 µg/mL (≈ 344 µM) | 100 µg/mL (≈ 344 µM) |  |
| CO/N=C(\C#N)C(=O)NCc1cccnc1 | > 100 µg/mL |  | EC50 (cells): > 100 µg/mL |
| C=CCO/N=C(\C#N)C(=O)NCC1=NOC(c2ccccc2)(c2ccccc2)C1 | 100 µg/mL (≈ 257 µM) |  | EC50 [7]: > 100 µg/mL |
| CO/N=C(\C#N)C(=O)NC1=NOC(C(C)(C)C)C1 (stereo not given) | > 100 µg/mL |  | EC50 (cells): > 100 µg/mL |
| C=CCO/N=C(\C)C(=O)NCC1=NOC(C(C)(C)C)C1 (stereo not given) | > 100 µg/mL |  | EC50 [6]: 6 µg/mL (≈ 21.3 µM) |
| NC12CC3CC(CC(C3)C1)C2 [AMANTADINE] | > 100 µg/mL | 100 µg/mL (≈ 661 µM) |  |
| CC(C)(C)C1CC(CNC(=O)/C(C#N)=N/OCc2ccccc2)=NO1 (stereo not given) | 100 µg/mL (≈ 292 µM) | 100 µg/mL (≈ 292 µM) |  |
| CO/N=C(\C#N)C(=O)NCC1=NOC(C(C)(C)C)C1 (stereo not given) | > 100 µg/mL |  | EC50 [4]: 10 µg/mL (≈ 37.6 µM) |
| CO/N=C(/C#N)C(=O)NCC1=NOC(C)(C)C1 | > 100 µg/mL |  | EC50 (cells): > 100 µg/mL |
